Results published in patent publication US20080194522A1, “Development of Fluorogenic Substrates For Monoamine Oxidases (Mao-A and Mao-B)” (priority 2004, published 2008).

Experiments:
MAO-A = biological target: T1, MAO-A (Homo sapiens, UniProt P21397); experiment: Monoamine oxidase A substrate assay, human placenta mitochondria, fluorescence detection of indole product
T1 sequence (P21397 1-527): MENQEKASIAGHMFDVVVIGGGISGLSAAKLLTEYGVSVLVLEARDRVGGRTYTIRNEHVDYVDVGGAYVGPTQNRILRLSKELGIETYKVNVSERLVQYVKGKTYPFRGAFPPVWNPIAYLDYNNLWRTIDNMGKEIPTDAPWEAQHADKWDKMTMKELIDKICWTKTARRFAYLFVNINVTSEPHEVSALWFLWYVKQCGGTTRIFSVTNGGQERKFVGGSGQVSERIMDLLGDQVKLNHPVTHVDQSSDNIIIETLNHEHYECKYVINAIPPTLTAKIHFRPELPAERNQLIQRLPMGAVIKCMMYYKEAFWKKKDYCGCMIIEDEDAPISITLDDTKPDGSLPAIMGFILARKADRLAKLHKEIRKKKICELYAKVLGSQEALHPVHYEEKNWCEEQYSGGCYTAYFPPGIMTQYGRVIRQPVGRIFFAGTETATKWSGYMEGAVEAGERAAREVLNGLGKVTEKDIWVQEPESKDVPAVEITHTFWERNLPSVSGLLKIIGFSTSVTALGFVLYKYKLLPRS

MAO-B = biological target: T2, MAO-B (Bos taurus, UniProt P56560); experiment: Monoamine oxidase B substrate assay, beef liver mitochondria, fluorescence detection of indole product
T2 sequence (P56560 1-520): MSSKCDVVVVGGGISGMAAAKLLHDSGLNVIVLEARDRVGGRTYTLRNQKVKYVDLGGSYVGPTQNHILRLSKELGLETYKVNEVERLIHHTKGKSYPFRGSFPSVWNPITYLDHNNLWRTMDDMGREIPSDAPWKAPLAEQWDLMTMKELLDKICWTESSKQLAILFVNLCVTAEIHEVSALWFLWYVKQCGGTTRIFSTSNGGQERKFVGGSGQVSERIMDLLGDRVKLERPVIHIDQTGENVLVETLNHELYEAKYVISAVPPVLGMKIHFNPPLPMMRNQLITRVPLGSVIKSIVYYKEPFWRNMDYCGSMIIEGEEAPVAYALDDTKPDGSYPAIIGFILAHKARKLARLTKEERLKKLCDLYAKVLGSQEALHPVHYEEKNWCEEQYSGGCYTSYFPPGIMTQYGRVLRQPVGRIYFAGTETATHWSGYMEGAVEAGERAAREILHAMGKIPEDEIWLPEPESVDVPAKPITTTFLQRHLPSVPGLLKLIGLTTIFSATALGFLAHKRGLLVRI

[1] = Photophysical characterization (absorbance, extinction coefficient, emission, quantum yield); assay type: physicochemical; details: for fluorescence, in words: aqueous / phosphate buffer
Procedure: Extinction coefficients were the average of three independent determinations of three different readings from the lowest energy transition at three concentrations. Quantum yields are the average of three determinations of both quantum yield standard 9,10-diphenylanthracene and the synthesized coumarines at 340 nm unless otherwise indicated.
All spectra were recorded in 100 mM sodium phosphate (pH 7.4) unless otherwise indicated. Recorded λmax is that of the longest wavelength transition. Extinction coefficients were reported as the average of at least three independent preparations of the probes. Fluorescence measurements were taken on a Jobin Yvon Fluorolog fluorescence spectrofluorometer (slits 3, HV 750) in 100 mM sodium phosphate pH 7.4 buffer unless otherwise indicated. Quantum yields were measured relative to 9,10 diphenylanthracene in EtOH.4 Reported quantum efficiencies are the average of at least three independent preparations of the probes.
The extinction coefficient ε relates the absorbance of a compound to its concentration as expressed in Beer's law (A=εbc where A is absorbance, b is pathlength, and c is concentration). Extinction coefficients were the average of three independent determinations of three different readings of absorbance from the lowest energy transition at three concentrations. The quantum yield of fluorescence is the fraction of absorbed photons that lead to fluorescence; the number of photons fluoresced divided by the number of photons absorbed. To obtain the quantum yields of the synthesized coumarines their efficiency was compared to standard 9,10-diphenylanthracene at 340 nm in three different determinations. The effect of different solvents on the fluorescence of the compounds was also tested. The compounds were dissolved in methanol, chloroform and toluene and their emissions spectrum was taken.

[2] = Fluorescence switch / apparent fluorescence increase, product versus substrate; assay type: physicochemical
Procedure: Apparent fluorescence increase was calculated by comparing the slopes (arbitrary fluorescence units/μM) of standard curves of chemically synthesized product and substrate concentration versus fluorescence intensity. Calculation of the apparent fluorescence increase is shown below for probe 9, which has a 21000% apparent fluorescence increase in emission intensity at λem=524 nm. The constants fP and fS were calculated from the slope of a line of fluorescence intensity versus concentration of chemically synthesized product indole 10 and substrate 9, respectively. These slopes were obtained from calibration curves of at least five concentrations of 9 and 10 in phosphate buffer (pH 7.4). The preparations of the compounds in mitochondrial assay buffer have negligible effects on fS and fP.

[3] = Solubility in aqueous solution; assay type: physicochemical; details: in words
Chemical stability = details: in words
[4] = 24-hour incubation, room temperature, pH 7.4

NCCc1cc2oc(=O)ccc2cc1N [III]
enzyme-catalyzed conversion of diamine to indole (MAO-A; [4]): significant conversion
kcx (MAO-A; Table 6, Monoamine Oxidase A): 0.475 min⁻¹
substrate quality for MAO-A (MAO-A; in words): good substrate for MAO-A
enzyme-catalyzed conversion of diamine to indole (MAO-B; [4]): significant conversion
kcx (MAO-B; Table 6, Monoamine Oxidase B): 20.62 min⁻¹
substrate quality for MAO-B (MAO-B; in words): good substrate for MAO-B
Φ ([1]; Table 2, in water, relative to 9,10-diphenyl anthracene (excited at 340 nm)): 0.0017
ε (M^−1cm^−1) ([1]; Table 2 diamines, in water): 2,000 ± 100 M^−1cm^−1
λmax (nm) ([1]; Table 2 diamines, in water): 352 nm

O=c1ccc2cc3[nH]ccc3cc2o1 [Probe 59, 1H-Pyrano[2,3-f]indol-6-one]
fluorescence emission intensity increase, indole/pyrrolocoumarin versus aniline/aminocoumarin [2]: around 2000 fold
fluorescence, in words [1]: quite fluorescent

CCN(CC)c1ccc2c(C)c(-c3ccc4[nH]ccc4c3)c(=O)oc2c1 [Probe 17, 7-Diethylamino-3-(1H-indol-5-yl)-4-methyl-chromen-2-one]
solubility in aqueous solution [3]: reasonably soluble
fluorescence emission intensity increase, indole/pyrrolocoumarin versus aniline/aminocoumarin [2]: 12 fold
emission wavelength [1]: 475 nm
fluorescence, in words [1]: highly fluorescent
chemical stability (Chemical stability): chemically and photo-physically stable

Cc1c(-c2ccc(N)c(CCO)c2)c(=O)oc2c3c4c(cc12)CCCN4CCC3 [Probe 23, 9-[4-Amino-3-(2-hydroxy-ethyl)-phenyl]-8-methyl-2,3,5,6-tetrahydro-1H, 4H-11-oxa-3a-aza-benzo[de]anthracen-10-one]
fluorescence emission intensity increase, indole/pyrrolocoumarin versus aniline/aminocoumarin [2]: 6 fold
